Data reported in patent publication US6916812B2, “Alpha-aminoamide derivatives as melanocortin agonists” (Bristol-Myers Squibb Company, priority 2001, dated 2005).
pIC50: −log10 of the molar value. Read-outs that look alike come from different tables or passages of the source.

Target: T1, cloned human MC4R (Homo sapiens, UniProt P32245)
T1 construct: made in house; host or cells: Hi5 insect cells (baculovirus infection); membrane preparation
Experiment: Membrane binding assay: competitive inhibition of [125I]NDP-α-MSH binding
Conditions: for inhibition at 10 µM: read-out: Displacement Rate (%) (at 10 μM); for pIC50: read-out: MC4R IC50

[1] = at 10 μM, [125I]NDP-α-MSH displacement

T1 sequence (P32245 whole entry): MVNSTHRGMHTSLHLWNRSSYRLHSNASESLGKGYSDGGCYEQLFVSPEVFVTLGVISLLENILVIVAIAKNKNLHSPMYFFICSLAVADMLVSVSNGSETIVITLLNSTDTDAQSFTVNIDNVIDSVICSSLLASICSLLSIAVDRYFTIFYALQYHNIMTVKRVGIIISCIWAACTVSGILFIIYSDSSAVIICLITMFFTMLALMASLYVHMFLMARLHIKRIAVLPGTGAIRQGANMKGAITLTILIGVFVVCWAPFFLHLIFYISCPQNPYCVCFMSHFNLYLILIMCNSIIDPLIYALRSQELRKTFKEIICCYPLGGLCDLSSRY

Structure (SMILES) | inhibition at 10 µM [1] [%] | pIC50 | Displacement Rate (%) (at 10 μM) [1] | inhibition at 10 µM [%]
Cc1cc(C)cc(COc2ccc(C[C@H](N)C(=O)N3CCN(Cc4cccc(Cl)c4Cl)CC3)cc2)c1 [Example 190] |  | 5.52 to 5.82 | +++ (+++ = 91-100) | 
CCOc1ccc(CN2CCN(C(=O)[C@@H](N)Cc3ccc(OCc4ccccc4)cc3)CC2)c(OCC)c1C [Example 104] | 91 to 100 | 5.52 to 5.82 |  | 
COc1ccccc1-c1ccc(C[C@H](N)C(=O)N2CCN(Cc3cccc(Cl)c3Cl)CC2)cc1 [Example 326] | 71 to 90 | 5.52 to 5.82 |  | 
Cc1ccccc1COc1ccc(C[C@H](N)C(=O)N2CCN(Cc3cccc(Cl)c3Cl)CC2)cc1 [Example 216] |  | 5.52 to 5.82 | +++ (+++ = 91-100) | 
COc1cc(OC)c(CN2CCN(C(=O)[C@@H](N)Cc3ccc(OCc4ccccc4)cc3)CC2)cc1Br [Example 130] | 35 to 70 | < 5.52 |  | 
CC(=O)c1ccc(-c2ccc(C[C@H](N)C(=O)N3CCN(Cc4cccc(Cl)c4Cl)CC3)cc2)s1 [Example 342] |  | 5.52 to 5.82 |  | 71 to 90
N[C@@H](Cc1ccc(OCc2ccccc2)cc1)C(=O)N1CCCN(Cc2ccc(Cl)cc2Cl)CC1 [Example 52] | 35 to 70 | < 5.52 |  | 
N[C@@H](Cc1ccc(Oc2ccccc2)cc1)C(=O)N1CCN(Cc2cccc(Cl)c2Cl)CC1 [Example 344] |  | < 5.52 |  | 
N[C@@H](Cc1ccc(OCc2ccccc2)cc1)C(=O)N1CCCN(Cc2ccc(Cl)c([N+](=O)[O-])c2)CC1 [Example 64] |  | < 5.52 |  | 35 to 70
N[C@@H](Cc1ccc(OCc2ccccc2)cc1)C(=O)N1CCCN(Cc2ccccc2Sc2ccc(Cl)cc2)CC1 [Example 2] | 91 to 100 | 5.52 to 5.82 |  | 
CCOc1ccccc1COc1ccc(C[C@H](N)C(=O)N2CCN(Cc3cccc(Cl)c3Cl)CC2)cc1 [Example 221] |  | 5.52 to 5.82 | +++ (+++ = 91-100) | 
N[C@@H](Cc1ccc(OCc2ccccc2Cl)cc1)C(=O)N1CCN(Cc2cccc(Cl)c2Cl)CC1 [Example 210] |  | 5.52 to 5.82 | +++ (+++ = 91-100) | 
N[C@@H](Cc1ccc(-c2cccc([N+](=O)[O-])c2)cc1)C(=O)N1CCN(Cc2cccc(Cl)c2Cl)CC1 [Example 330] | 71 to 90 | < 5.52 |  | 
N[C@@H](Cc1ccc(OCc2ccccc2)cc1)C(=O)N1CCN(Cc2c3ccccc3cc3ccccc23)CC1 [Example 100] |  | 5.52 to 5.82 |  | 91 to 100
N[C@@H](Cc1ccc(-c2ccccc2Cl)cc1)C(=O)N1CCN(Cc2cccc(Cl)c2Cl)CC1 [Example 321] | 91 to 100 | 5.52 to 5.82 |  | 
Cc1ccsc1CN1CCCN(C(=O)[C@@H](N)Cc2ccc(OCc3ccccc3)cc2)CC1 [Example 48] | 35 to 70 | < 5.52 |  | 
N[C@@H](Cc1ccc(OCc2ccccc2)cc1)C(=O)N1CCCN(Cc2cnc3ccccc3c2)CC1 [Example 62] | 35 to 70 | < 5.52 |  | 
N[C@@H](Cc1ccc(OCc2ccccc2)cc1)C(=O)N1CCCN(Cc2ccncc2)CC1 [Example 76] | 35 to 70 | < 5.52 |  | 
CCOc1cccc(-c2ccc(C[C@H](N)C(=O)N3CCN(Cc4cccc(Cl)c4Cl)CC3)cc2)c1 [Example 308] | 91 to 100 | > 5.82 |  | 
N[C@@H](Cc1ccc(OCc2ccccc2)cc1)C(=O)N1CCCN(Cc2cccc(C(F)(F)F)c2)CC1 [Example 55] | 35 to 70 | < 5.52 |  | 
N[C@@H](Cc1ccc(OCc2ccccc2)cc1)C(=O)N1CCCN(Cc2cc(OCc3ccccc3)cc(OCc3ccccc3)c2)CC1 [Example 12] | 91 to 100 | > 5.82 |  | 
Cc1ccc(C)c(COc2ccc(C[C@H](N)C(=O)N3CCN(Cc4cccc(Cl)c4Cl)CC3)cc2)c1 [Example 202] |  | 5.52 to 5.82 | +++ (+++ = 91-100) | 
COc1cc(CN2CCN(C(=O)[C@@H](N)Cc3ccc(OCc4ccccc4)cc3)CC2)cc(Br)c1OC [Example 121] | 71 to 90 | 5.52 to 5.82 |  | 

Now from value to compound, other results behind:

inhibition at 10 µM [1] [%] | pIC50 | Displacement Rate (%) (at 10 μM) [1] | Structure (SMILES) | inhibition at 10 µM [%]
35 to 70 | > 5.82 |  | CCCCCCCCOc1ccc(CN2CCN(C(=O)[C@@H](N)Cc3ccc(OCc4ccccc4)cc3)CC2)cc1 [Example 133] | 
 | > 5.82 |  | N[C@@H](Cc1ccc(-c2cc3ccccc3s2)cc1)C(=O)N1CCN(Cc2cccc(Cl)c2Cl)CC1 [Example 338] | 91 to 100
 | > 5.82 | +++ (+++ = 91-100) | N[C@@H](Cc1ccc(OCc2ccccc2Cc2ccccc2)cc1)C(=O)N1CCN(Cc2cccc(Cl)c2Cl)CC1 [Example 215] | 
 | > 5.82 | +++ (+++ = 91-100) | N[C@@H](Cc1ccc(OCc2cc(Cl)cc(Cl)c2)cc1)C(=O)N1CCN(Cc2cccc(Cl)c2Cl)CC1 [Example 189] | 
 | > 5.82 | +++ (+++ = 91-100) | N[C@@H](Cc1ccc(OCCc2ccccc2)cc1)C(=O)N1CCN(Cc2cccc(Cl)c2Cl)CC1 [Example 238] | 
91 to 100 | > 5.82 |  | N[C@@H](Cc1ccc(OCc2ccccc2)cc1)C(=O)N1CCCN(Cc2ccc(C(c3ccccc3)c3ccccc3)cc2)CC1 [Example 1] | 
 | > 5.82 | +++ (+++ = 91-100) | N[C@@H](Cc1ccc(OCc2ccc(F)cc2F)cc1)C(=O)N1CCN(Cc2cccc(Cl)c2Cl)CC1 [Example 196] | 
 | > 5.82 | +++ (+++ = 91-100) | N[C@@H](Cc1ccc(OCc2ccc(Cl)cc2Cl)cc1)C(=O)N1CCN(Cc2cccc(Cl)c2Cl)CC1 [Example 200] | 
91 to 100 | > 5.82 |  | N[C@@H](Cc1ccc(-c2cccc(F)c2)cc1)C(=O)N1CCN(Cc2cccc(Cl)c2Cl)CC1 [Example 311] | 
91 to 100 | > 5.82 |  | N[C@@H](Cc1ccc(OCc2ccccc2)cc1)C(=O)N1CCN(Cc2cn(Cc3ccccc3)c3ccccc23)CC1 [Example 87] | 
91 to 100 | > 5.82 |  | COc1cccc(CCOc2ccc(C[C@H](N)C(=O)N3CCN(Cc4cccc(Cl)c4Cl)CC3)cc2)c1 [Example 243] | 
91 to 100 | > 5.82 |  | N[C@@H](Cc1ccc(-c2ccc(F)c(Cl)c2)cc1)C(=O)N1CCN(Cc2cccc(Cl)c2Cl)CC1 [Example 306] | 
 | > 5.82 | +++ (+++ = 91-100) | CC(C)(C)c1ccc(COc2ccc(C[C@H](N)C(=O)N3CCN(Cc4cccc(Cl)c4Cl)CC3)cc2)cc1 [Example 201] | 
91 to 100 | > 5.82 |  | CC(C)(C)c1ccc(-c2ccc(C[C@H](N)C(=O)N3CCN(Cc4cccc(Cl)c4Cl)CC3)cc2)cc1 [Example 305] | 
71 to 90 | > 5.82 |  | N[C@@H](Cc1ccc(OCc2ccccc2)cc1)C(=O)N1CCN(Cc2ccc(OCc3ccc([N+](=O)[O-])cc3)cc2)CC1 [Example 110] | 
91 to 100 | > 5.82 |  | N[C@@H](Cc1ccc(OCc2ccccc2)cc1)C(=O)N1CCN(Cc2cccc(Oc3ccccc3)c2)CC1 [Example 103] | 
91 to 100 | > 5.82 |  | N[C@@H](Cc1ccc(-c2ccc(Oc3ccccc3)cc2)cc1)C(=O)N1CCN(Cc2cccc(Cl)c2Cl)CC1 [Example 302] | 
91 to 100 | > 5.82 |  | O=C([C@H](Cc1ccc(OCc2ccccc2)cc1)NCCN1CCCCC1)N1CCN(Cc2cccc(Cl)c2Cl)CC1 [Example 176] | 
